Measurements taken from patent publication US4062950A, “Amino sugar derivatives” (priority 1973, dated 1977).
Values joined by “and” are separate entries in the source; they are usually repeats but may differ in a detail not shown here. Identical values can stand only once. Like-named read-outs stand apart in the source and are kept apart here.

How the values were obtained:
[1] = biological target: T1, pancreas-α-amylase (Sus scrofa, UniProt P00690); assay: In vitro amylase test; type: biochemical; conditions: for α-Amylase Inhibition / α-Amylase Inhibition In Vitro: in vitro; for α-Amylase Inhibition: Table II; for α-Amylase Inhibition In Vitro: Table VI; for amylase inhibiting activity of isolated product: isolated product of the Examples
T1 sequence (P00690 16-511): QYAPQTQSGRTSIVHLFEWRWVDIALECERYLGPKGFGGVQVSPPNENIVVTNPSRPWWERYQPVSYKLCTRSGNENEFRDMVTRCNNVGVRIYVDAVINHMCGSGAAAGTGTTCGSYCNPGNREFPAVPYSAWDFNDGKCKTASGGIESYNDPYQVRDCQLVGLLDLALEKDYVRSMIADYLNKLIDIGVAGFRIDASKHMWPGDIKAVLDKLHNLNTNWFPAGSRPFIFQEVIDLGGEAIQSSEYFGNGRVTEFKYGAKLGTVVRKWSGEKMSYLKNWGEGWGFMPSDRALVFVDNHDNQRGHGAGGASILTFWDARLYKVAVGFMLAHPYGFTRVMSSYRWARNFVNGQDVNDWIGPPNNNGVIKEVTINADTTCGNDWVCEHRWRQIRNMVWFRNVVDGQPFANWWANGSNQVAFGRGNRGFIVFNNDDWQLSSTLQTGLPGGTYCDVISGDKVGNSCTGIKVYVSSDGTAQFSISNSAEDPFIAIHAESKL
Protocol: One amylase inhibitor unit (1 AIU) is defined as the amount of inhibitor which inhibits two amylase units to the extent of 50%. One amylase unit (AU) is the amount of enzyme which under the test conditions specified below splits 1 μequivalent of glucoside bonds in the starch per minute. The μequivalents of split bonds are determined colorimetrically as μequivalents of reducing sugars formed, using dinitrosalicylic acid, and are quoted as μequivalents of maltose equivalents, using a maltose calibration curve. To carry out the test, 0.1 ml of amylase solution (20-22 AU/ml) are mixed with 0-10 μg of inhibitor or 0-20 μl of the solution to be tested in 0.4 ml of 0.02 M sodium glycerophosphate buffer/0.001 M CaCl2, pH 6.9, and the mixture is equilibrated for 10-20 minutes in a water bath at 35° C. The mixture is then incubated for 5 minutes at 35° C with 0.5 ml of a 1% strength starch solution which has been pre-warmed to 35° C (soluble starch No. 1,252 from Merck, Darmstadt), and thereafter 1 ml of dinitrosalicyclic acid reagent (according to P. bernfeld in Colowick-Kaplan, Meth. Enzymol., Volume l, page 149) is added. To develop the color, the batch is heated for 5 minutes on a boiling water bath and then cooled, and 10 ml of distilled water are added. The extinction at 540 nm is measured against a correspondingly made-up blank without amylase. […] The percentage inhibition is plotted as a function of the quotient [formula]

[2] = biological target: T2, saccharase (Sus scrofa, UniProt P56729); assay: In vitro saccharase test; type: biochemical, pig; conditions: for Saccharase Inhibition: Table II; for Saccharase Inhibition In Vitro: Table IV; for saccharase inhibiting activity of isolated product: product of the Examples
T2 construct: sucrase subunit of the sucrase-isomaltase complex hydrolyses sucrose
Protocol: One saccharase inhibitor unit (SIU) is defined as the amount of inhibitor which inhibits two saccharase units to the extent of 50%. One saccharase unit (SU) is the amount of enzyme which under the test conditions specified splits 1 μmol of sucrose to glucose and fructose per minute. The μmols of glucose formed are determined quantitatively by means of the glucose oxidase reaction under conditions under which a further splitting of the sucrose by the saccharase no longer takes place. To carry out the test, 0.05 ml of solubilized saccharase [from the mucous membrane of the small intestine of the pig, according to B. Borgastrom, A. Dahlquist, Acta Chem. Scand. 12, (1958), page 1,997], diluted with 0.1 M sodium maleate buffer of pH 6.0 to a SU content adjusted to 0.12 SU is mixed with 0-20 μg of inhibitor or 0-20 μl of the solution to be tested and brought up to 0.1 ml with 0.1 M sodium maleate buffer of pH 6.0. The mixture is equilibrated for 10 minutes at 35° C and 0.1 ml of an 0.05 M sucrose solution in 0.1 M sodium maleate buffer of pH 6.0, pre-warmed to 35° C, is then added. The mixture is incubated for 20 minutes at 35° C, the saccharase reaction is stopped by addition of 1 ml of glucose oxidase reagent, and the incubation is continued for a further 30 minutes at 35° C. (The glucose oxidase reagent is prepared by dissolving 2 mg of glucose oxidase, Boehringer, No. 15,423, in 100 ml of 0.565 M tris-HCl buffer of pH 7.0 and subsequently adding 1 ml of detergent solution (2 g of Triton X 100 + 8 g of 95% strength and analytical grade ethanol), 1 ml of dianisidine solution (260 mg of o-dianisidine. 2HCl in 20 ml of H2 O) and 0.5 ml of 0.1% strength aqueous peroxidase solution, Boehringer, No. 15,302). Thereafter, 1 ml of 50% strength H2 SO4 is added and a measurement carried out at 545 nm against a corresponding blank. To evaluate the results, the percentage inhibition of the saccharase employed is calculated and converted to SIU/g of SIU/liter from the 50% inhibition point, using a glucose calibration curve.

[3] = biological target: T3, saccharase (Rattus norvegicus, UniProt P23739); assay: In vivo saccharase inhibition (sucrose overfeeding test) in the fasting rat; conditions: for ED50: read-out: Saccharase Inhibition (ED50 mg/kg)
T3 construct: from tissue; host or cells: intestine of the living rat (endogenous enzyme)
Protocol: The produce an alimentary hyperglycemia and hyperinsulinaemia, groups of 6 fasting rats are given (a) 2.5 g of sucrose, (b) 2.5 g of maltose or (c) 1 g of boiled starch orally, in aqueous solution or suspension. Six other rats are given the same carbohydrates in the same amount and a glycoside hydrolase inhibitor in the amount indicated. In addition, six other rats are given an appropriate volume of saline. The blood glucose and the serum insulin are then measured at short intervals of time, in the blood from the retro-orbital venous plexus. Blood glucose determinations are carried out in the Auto-Analyser device (Technicon), according to Hoffmann: J. biol.

[4] = 2.5 g sucrose + 50 SIU oral, 15 Min.
[5] = 2.5 g sucrose + 50 SIU oral, 30 Min.
[6] = 2.5 g sucrose + 50 SIU oral, 45 Min.
[7] = 2.5 g sucrose + 100 SIU oral, 15 Min.
[8] = 2.5 g sucrose + 100 SIU oral, 30 Min.
[9] = 2.5 g sucrose + 100 SIU oral, 45 Min.
[10] = ED50, sucrose, fasting rat, Table IV, read-out: Saccharase Inhibition In Vitro (ED50 mg/kg)
[11] = 2.5 g sucrose + 25 SIU oral, 15 Min.
[12] = 2.5 g sucrose + 25 SIU oral, 30 Min.
[13] = 2.5 g sucrose + 25 SIU oral, 45 Min.

T2 sequence (P56729 with tags, fused parts or gaps): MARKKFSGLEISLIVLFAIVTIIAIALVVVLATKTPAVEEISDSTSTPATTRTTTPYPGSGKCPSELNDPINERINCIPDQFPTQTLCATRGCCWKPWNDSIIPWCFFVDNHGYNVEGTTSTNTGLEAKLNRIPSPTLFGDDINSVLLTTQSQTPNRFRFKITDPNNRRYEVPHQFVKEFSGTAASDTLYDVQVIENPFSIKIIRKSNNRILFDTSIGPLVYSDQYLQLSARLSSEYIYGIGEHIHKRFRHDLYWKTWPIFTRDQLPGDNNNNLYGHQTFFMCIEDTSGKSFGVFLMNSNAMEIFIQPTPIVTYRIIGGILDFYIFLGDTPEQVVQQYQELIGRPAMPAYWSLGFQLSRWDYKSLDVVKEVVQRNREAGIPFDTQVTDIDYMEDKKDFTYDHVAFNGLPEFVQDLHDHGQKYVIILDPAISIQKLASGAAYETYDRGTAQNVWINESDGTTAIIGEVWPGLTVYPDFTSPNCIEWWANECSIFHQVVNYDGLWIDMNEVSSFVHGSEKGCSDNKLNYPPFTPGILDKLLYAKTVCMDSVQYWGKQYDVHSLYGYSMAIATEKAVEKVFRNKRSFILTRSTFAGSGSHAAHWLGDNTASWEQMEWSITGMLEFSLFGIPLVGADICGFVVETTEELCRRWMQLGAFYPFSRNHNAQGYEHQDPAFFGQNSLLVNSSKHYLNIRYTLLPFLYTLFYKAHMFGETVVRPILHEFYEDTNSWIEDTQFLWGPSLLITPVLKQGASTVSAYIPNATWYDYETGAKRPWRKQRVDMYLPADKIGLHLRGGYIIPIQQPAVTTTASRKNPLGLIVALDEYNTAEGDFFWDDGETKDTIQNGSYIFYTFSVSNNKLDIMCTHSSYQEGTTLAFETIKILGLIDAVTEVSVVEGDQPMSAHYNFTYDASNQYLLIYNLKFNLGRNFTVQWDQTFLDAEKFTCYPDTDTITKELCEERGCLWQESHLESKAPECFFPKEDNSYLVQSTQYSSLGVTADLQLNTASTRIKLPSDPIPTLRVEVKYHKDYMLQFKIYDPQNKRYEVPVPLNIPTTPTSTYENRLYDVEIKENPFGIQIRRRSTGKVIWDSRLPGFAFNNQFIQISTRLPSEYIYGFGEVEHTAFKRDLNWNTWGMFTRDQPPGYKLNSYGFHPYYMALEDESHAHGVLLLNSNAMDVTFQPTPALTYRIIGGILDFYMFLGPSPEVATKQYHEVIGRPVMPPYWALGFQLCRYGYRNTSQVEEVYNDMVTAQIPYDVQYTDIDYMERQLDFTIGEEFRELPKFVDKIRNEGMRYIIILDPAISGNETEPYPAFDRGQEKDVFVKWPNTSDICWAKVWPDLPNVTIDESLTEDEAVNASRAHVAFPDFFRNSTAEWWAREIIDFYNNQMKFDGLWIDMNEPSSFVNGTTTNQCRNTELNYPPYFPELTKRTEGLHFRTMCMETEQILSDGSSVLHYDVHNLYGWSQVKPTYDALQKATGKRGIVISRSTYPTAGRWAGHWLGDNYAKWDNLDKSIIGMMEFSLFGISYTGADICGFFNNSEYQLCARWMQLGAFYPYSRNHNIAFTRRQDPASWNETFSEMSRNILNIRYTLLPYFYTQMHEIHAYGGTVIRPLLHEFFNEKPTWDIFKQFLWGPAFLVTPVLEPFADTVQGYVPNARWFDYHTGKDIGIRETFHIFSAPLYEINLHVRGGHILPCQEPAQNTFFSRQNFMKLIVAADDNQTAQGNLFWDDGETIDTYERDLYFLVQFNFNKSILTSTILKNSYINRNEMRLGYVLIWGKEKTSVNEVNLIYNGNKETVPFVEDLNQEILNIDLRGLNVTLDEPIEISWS
T3 sequence (P23739 1014-1841 limits assumed): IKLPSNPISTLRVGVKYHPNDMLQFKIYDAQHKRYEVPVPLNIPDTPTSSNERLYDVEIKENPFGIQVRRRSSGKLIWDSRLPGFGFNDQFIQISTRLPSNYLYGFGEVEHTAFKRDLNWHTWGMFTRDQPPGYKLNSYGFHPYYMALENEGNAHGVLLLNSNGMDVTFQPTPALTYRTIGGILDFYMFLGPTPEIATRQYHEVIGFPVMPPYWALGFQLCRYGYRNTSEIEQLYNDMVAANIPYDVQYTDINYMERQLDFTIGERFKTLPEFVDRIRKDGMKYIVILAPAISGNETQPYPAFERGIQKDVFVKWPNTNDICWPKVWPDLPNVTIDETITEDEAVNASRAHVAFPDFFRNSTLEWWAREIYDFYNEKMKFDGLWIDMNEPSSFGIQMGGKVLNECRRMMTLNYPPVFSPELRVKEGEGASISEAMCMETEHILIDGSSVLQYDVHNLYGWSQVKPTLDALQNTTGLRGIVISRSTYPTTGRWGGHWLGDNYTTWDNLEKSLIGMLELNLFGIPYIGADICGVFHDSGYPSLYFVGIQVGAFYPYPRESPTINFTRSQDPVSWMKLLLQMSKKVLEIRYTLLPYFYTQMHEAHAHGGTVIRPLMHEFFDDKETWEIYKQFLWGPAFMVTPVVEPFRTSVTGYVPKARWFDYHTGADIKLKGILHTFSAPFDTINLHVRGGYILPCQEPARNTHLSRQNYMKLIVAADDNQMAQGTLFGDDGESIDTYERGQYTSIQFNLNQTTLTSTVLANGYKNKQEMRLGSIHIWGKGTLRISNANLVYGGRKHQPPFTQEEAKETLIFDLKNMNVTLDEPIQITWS
T3 sequence (P23739 2-1013 partner limits assumed): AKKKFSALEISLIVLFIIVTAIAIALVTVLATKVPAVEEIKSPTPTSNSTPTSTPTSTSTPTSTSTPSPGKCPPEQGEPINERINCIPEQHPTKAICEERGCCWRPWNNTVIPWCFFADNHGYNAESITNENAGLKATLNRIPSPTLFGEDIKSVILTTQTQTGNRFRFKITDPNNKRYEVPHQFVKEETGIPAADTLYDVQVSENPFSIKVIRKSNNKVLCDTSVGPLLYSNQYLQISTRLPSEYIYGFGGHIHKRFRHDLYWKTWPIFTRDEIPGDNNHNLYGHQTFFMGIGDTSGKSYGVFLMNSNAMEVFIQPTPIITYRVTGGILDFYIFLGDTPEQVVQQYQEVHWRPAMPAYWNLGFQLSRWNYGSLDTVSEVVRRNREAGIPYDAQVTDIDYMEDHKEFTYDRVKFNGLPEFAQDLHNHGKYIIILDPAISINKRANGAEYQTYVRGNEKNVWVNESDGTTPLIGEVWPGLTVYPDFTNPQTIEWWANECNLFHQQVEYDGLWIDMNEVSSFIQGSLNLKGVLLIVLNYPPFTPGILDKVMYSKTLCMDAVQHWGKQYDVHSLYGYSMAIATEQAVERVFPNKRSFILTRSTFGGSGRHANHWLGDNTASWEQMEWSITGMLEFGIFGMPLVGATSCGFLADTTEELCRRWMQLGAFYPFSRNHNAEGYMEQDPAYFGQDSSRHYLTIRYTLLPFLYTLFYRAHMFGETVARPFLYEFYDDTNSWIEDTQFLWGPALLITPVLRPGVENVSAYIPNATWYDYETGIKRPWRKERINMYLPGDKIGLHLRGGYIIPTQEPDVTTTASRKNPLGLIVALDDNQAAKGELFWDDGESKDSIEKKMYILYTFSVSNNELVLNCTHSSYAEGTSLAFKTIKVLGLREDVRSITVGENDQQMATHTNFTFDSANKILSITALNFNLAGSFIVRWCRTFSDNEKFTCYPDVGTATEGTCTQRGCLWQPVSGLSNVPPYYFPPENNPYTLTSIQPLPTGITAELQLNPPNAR

| SMILES | α-Amylase Inhibition [1] | α-Amylase Inhibition In Vitro [1] | amylase inhibiting activity of isolated product [1] | Saccharase Inhibition ([2]; in vitro) | Saccharase Inhibition In Vitro ([2]; in vitro) [SIU/mg] | Blood Glucose (Mean ± SD) [3, 4] [mg%] | Blood Glucose (Mean ± SD) [3, 5] [mg%] | Blood Glucose (Mean ± SD) [3, 6] [mg%] | Blood Glucose (Mean ± SD) [3, 7] [mg%] | Blood Glucose (Mean ± SD) [3, 8] [mg%] | Blood Glucose (Mean ± SD) [3, 9] [mg%] | ED50 [3, 10] [mg/kg] | Blood Glucose (Mean ± SD) [3, 11] [mg%] | Blood Glucose (Mean ± SD) [3, 12] [mg%] | Blood Glucose (Mean ± SD) [3, 13] [mg%] | other results |
| --- | --- | --- | --- | --- | --- | --- | --- | --- | --- | --- | --- | --- | --- | --- | --- | --- |
| C[C@H]1O[C@H](O[C@H]2[C@H](O)[C@@H](O)C(O)O[C@@H]2CO)[C@H](O)[C@@H](O)[C@@H]1N[C@H]1C=C(CO)[C@@H](O)[C@H](O)[C@H]1O (stereo partly drawn) [Formula IIB, O-{4,6-bisdesoxy-4-[1 S-(1,4,6/5)-4,5,6-trihydroxy-3-hydroxymethylcyclohex-2-en-1-ylamino]-α-D-glucopyranosyl}-(1→4)-D-glucopyranose] | 300,000 AIU/g | 300 AIU/mg | 0.3 × 10^6 AIU/g | 30,000 SIU/g | 30 | 105 ± 11 | 123 ± 5.2 | 128 ± 11 | 89 ± 6.5 | 111 ± 4.1 | 116 ± 3.9 | 3 |  |  |  | Saccharase inhibition relative to the derivative having two units ([2]; in vitro, in words): only half as much; saccharase inhibiting activity of isolated product ([2]; listed as one glucose unit): 30,000 SIU/g and 35,000 SIU/g; Blood Glucose (Mean ± SD) ([3]; 2.5 g sucrose + 200 SIU oral, 15 Min.): 72 ± 4.6 mg%; Blood Glucose (Mean ± SD) ([3]; 2.5 g sucrose + 200 SIU oral, 30 Min.): 95 ± 9.1 mg%; Blood Glucose (Mean ± SD) ([3]; 2.5 g sucrose + 200 SIU oral, 45 Min.): 104 ± 9.6 mg% |
| C[C@H]1O[C@H](O[C@H]2[C@H](O)[C@@H](O)[C@@H](O[C@H]3[C@H](O)[C@@H](O)C(O)O[C@@H]3CO)O[C@@H]2CO)[C@H](O)[C@@H](O)[C@@H]1N[C@H]1C=C(CO)[C@@H](O)[C@H](O)[C@H]1O (stereo partly drawn) [Formula IIIB, O-{4,6-bisdesoxy-4-[1 S-(1,4,6/5)-4,5,6-trihydroxy-3-hydroxymethylcyclohex-2-en-1-ylamino]-α-D-glucopyranosyl}-(1→4)-O-α-D-glucopyranosyl-(1→4)-D-glucopyranose] | 300,000 AIU/g | 300 AIU/mg | 0.3 × 10^6 AIU/g | 68,000 SIU/g | 68 |  |  |  | 58 ± 5.9 | 92 ± 4.0 | 98 ± 5.0 |  | 71 ± 3.7 | 100 ± 7.3 | 107 ± 2.4 | Saccharase inhibition, in words ([2]; in vitro): most pronounced; saccharase inhibiting activity of isolated product ([2]; listed as 2 glucose units): 50,000 SIU/g and 60,000 SIU/g; saccharase inhibiting activity of isolated product ([2]; listed as 2 units): 68,000 SIU/g; saccharase inhibiting activity of isolated product ([2]; listed as two glucose units): 65,000 SIU/g; ED50 ([3]; rat): 0.21 mg/kg |
| C[C@H]1O[C@H](O[C@H]2[C@H](O)[C@@H](O)[C@@H](O[C@H]3[C@H](O)[C@@H](O)C(O)O[C@@H]3CO)O[C@@H]2CO)[C@H](O)[C@@H](O)[C@@H]1N[C@H]1C=C(CO)[C@@H](O[C@H]2O[C@H](CO)[C@@H](O)[C@H](O)[C@H]2O)[C@H](O)[C@H]1O (stereo partly drawn) [Formula V, O-{4,6-bisdesoxy-4-[1 S-(1,4,6/5)-4,5,6-trihydroxy-3-hydroxymethyl-4-O-α-D-glucopyranosyl-(1→4)-cyclohex-2-en-1-ylamino]-α-D-glycopyranosyl}-(1→4)-O-α-D-glucopyranosyl-(1→4)-D-glucopyranose] | 1,400,000 AIU/g | 1,400 AIU/mg | 1.4 × 10^6 AIU/g | 21,000 SIU/g | 21 | 91 ± 9.4 | 106 ± 7.0 | 94 ± 9.0 | 81 ± 7.2 | 90 ± 8.0 | 97 ± 1.6 | 2.65 | 88 ± 11.4 | 101 ± 12.0 | 104 ± 7.4 | saccharase inhibiting activity of isolated product [2]: 21,000 SIU/g |
